Patent US20030124652A1, “Methods of producing high mannose glycoproteins in complex carbohydrate deficient cells” (NOVAZYME PHARMACEUTICALS, INC., priority 2001, published 2003)

Tested on: CHO cell line (GAA LEC clone R3.3) expressing rh-GAA
Experiment: Phosphorylation efficiency of rh-GAA from cultures containing mannosidase inhibitors ([32P] incorporation by GlcNAc phosphotransferase)
Type: cell-based, Chinese Hamster
Conditions: increasing amounts of inhibitor alone vs no mannosidase inhibitors (FIG. 1)
Protocol: To determine whether mannosidase inhibitors can increase phosphorylation efficiency of recombinant human acid alpha glucosidase (rh-GAA), a CHO cell line (GAA LEC clone R3.3) expressing rh-GAA was grown in various conditions that contained different amounts of the following mannosidase the inhibitors: Kifunensin; Deoxymannojirimycin (DMJ); or combinations of both inhibitors. Conditioned media from each inhibitor condition containing 6 μg of GAA (based on GAA activity assay) was then incubated with purified bovine GlcNAc phosphotransferase (Pt'ase) and [^32P]UDP-GlcNAc. Subsequently, each phosphorylation reaction was loaded onto a concanavalin A-sepharose column to capture glycoproteins, e.g., rh-GAA. The concanavalin A-sepharose was washed and the resin was counted in a liquid scintillation counter to measure the ^32P incorporation, i.e., the extent of phosphorylation on rh-GAA. The results are summarized in Table 1 below and FIGS. 1 and 2.

SMILES | effect on the phosphorylation reaction of rh-GAA (in words)
O=C1N[C@@H]2[C@@H](O)[C@@H](O)[C@H](O)[C@@H](CO)N2C1=O [Kifunensin only, kifunensine] | greatly enhance the phosphorylation reaction
OC[C@H]1NC[C@@H](O)[C@@H](O)[C@@H]1O [DMJ only, deoxymannojirimycin] | greatly enhance the phosphorylation reaction
